Usually IC50 stands for the point on the concentration scale where inhibition reaches its midpoint.

In test [1] the target is T1, human FAAH (Fatty Acid Amide Hydrolase) (Homo sapiens (Human), UniProt O00519). Briefly: FAAH inhibition, human FAAH CHO whole cell format. Format: cell-based. From the text: (§1) To assist in assay development stable cell lines for human, murine and rat full length FAAH were developed. […] The full length FAAH was subcloned into the mammalian expression vector, pcDEF.neo, using XbaI and EcoRI restriction sites and used for stable cell line generation.
T1 sequence (O00519 whole entry): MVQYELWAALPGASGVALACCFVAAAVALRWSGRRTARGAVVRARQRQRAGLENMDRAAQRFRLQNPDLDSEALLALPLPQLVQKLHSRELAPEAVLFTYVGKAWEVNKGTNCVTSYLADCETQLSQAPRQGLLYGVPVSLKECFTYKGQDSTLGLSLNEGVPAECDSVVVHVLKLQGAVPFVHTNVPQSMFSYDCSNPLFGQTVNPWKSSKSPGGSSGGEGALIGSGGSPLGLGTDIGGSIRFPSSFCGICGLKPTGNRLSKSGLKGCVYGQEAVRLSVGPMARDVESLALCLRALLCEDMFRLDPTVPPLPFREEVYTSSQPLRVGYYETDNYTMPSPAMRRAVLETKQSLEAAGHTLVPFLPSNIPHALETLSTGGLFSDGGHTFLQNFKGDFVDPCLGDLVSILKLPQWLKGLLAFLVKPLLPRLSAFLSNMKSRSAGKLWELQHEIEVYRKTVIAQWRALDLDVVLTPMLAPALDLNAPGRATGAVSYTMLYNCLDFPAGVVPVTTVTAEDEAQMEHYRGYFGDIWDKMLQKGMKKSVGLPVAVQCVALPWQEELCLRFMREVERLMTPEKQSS
(§2) The full length murine FAAH was subcloned into the mammalian expression vector, pcDEFneo using either EcoRI (murine) or KpnI and EcoRI (rat) restriction sites. Chinese hamster ovary cells (CHO) were transfected following manufacturers protocol (AMAXA). Forty eight hours post transfection, cells were trypsinized and transferred to 96 well plates in Iscove's DMEM media supplemented with 2 mM Glutamine, 10% fetal calf serum, 1 mg/ml geneticin and HT Supplement (0.1 mM sodium hypoxanthine, 0.016 mM thymidine) in order to isolate single clones. […] Following removal of tissue culture media cells were dislodged following addition of Cellstripper (Mediatech, Inc. Manassas, Va.) and transferred to 96 well black clear bottom assay plate, centrifuged at 1,000 rpm for 3 mins and media removed and replaced with assay buffer (50 mM Tris pH8.0, 1 mM EDTA, 0.1% fatty acid free BSA). The reaction was initiated by addition of fluorescent substrate, AMC Arachidonoyl Amide (Cayman Chemical, Ann Arbor, Mich.) to 1 μM and reaction allowed to proceed for 2 hours at room temperature. Release of fluorescence was monitored in a CytoFluor Multiplate Reader.
(§3) Assays are performed on either cell lysate or microsome fractions prepared as described or in whole cell format employing either the fluorescent substrate AAMCA (Cayman chemical, Ann Arbor, Mich.,) or ^3H-anandamide ([ETHANOLAMINE-1-3H] American Radiolabeled Chemicals; 1 mCi/ml). […] AAMCA substrate was used to achieve a final concentration of 1 μM and reaction allowed to proceed at room temperature for 1-3 hours. […] Whole cell assay is conducted with cells harvested after rinsing tissue culture flasks three times with Ca^++Mg^++ free PBS, incubating for 10 min in Enzyme free dissociation media and centrifuging for 5 minutes at 1,000 rpm in table top centrifuge. Cells are resuspended in assay buffer at desired cell number in (4×10^4 cells/assay in 96-well format; 1×10^4 cells/assay in 384-well format) and assayed as described.

The target of test [2] is T1, human FAAH (Fatty Acid Amide Hydrolase). Description: FAAH inhibition, human FAAH CHO cell lysate (AAMCA fluorescence). Format: biochemical.
Description: as §1, §2
CHO cells expressing FAAH were used to prepare either crude cell lysate or microsome fractions. To harvest cells, tissue culture media was decanted, the monolayer washed three times with Ca^++Mg^++ free PBS and cells recovered after 15 min in enzyme free dissociation media (Millipore Corp, Billerica, Mass.). Cells were collected by centrifuging at 2000 rpm for 15 min, and the cell pellet re-suspended with 50 mM HEPES (pH 7.4) containing 1 mM EDTA and the protease inhibitors aprotinin (1 mg/ml) and leupeptin (100 μM). The suspension was sonicated at 4° C. and the cell lysate recovered after centrifuging at 12,000×g (14,600 rpm, SS34 rotor) for 20 min at 4° C. to form a crude pellet of cell debris, nuclei, peroxisomes, lysosomes, and mitochondria; the supernatant or cell lysate was used for FAAH enzyme assay. In some eases, microsomes fractions enriched in FAAH were prepared by centrifuging the cell lysate further at 27,000 rpm (100,000×g) in SW28 rotor for 50 minutes at 4° C. The pellet containing FAAH-enriched microsomes was re-suspend in 50 mM HEPES, (pH 7.4) 1 mM EDTA, and any remaining DNA sheared by passage of material through a 23 gauge needle and aliquots of enzyme were store at −80° C. prior to use.
as §3
Alternatively, assays are performed using anandamide [ethanolamine 1-^3H] (specific activity of 10 Ci/mmol) diluted with cold anandamide to achieve a final assay concentration of 1 μM anandamide (˜50,000 cpm). Enzyme (CHO cell lysate, brain or liver homogenate) is incubated in assay buffer (50 mM Phosphate, pH 8.0, 1 mM EDTA, 200 mM KCl, 0.2% glycerol, 0.1% fatty acid free BSA) with inhibitor at 25° C. for 30 minutes.

Molecules are shown by their SMILES.

As for `Clc1ccc(Sc2oc(C3CCOCC3)nc2-c2cnc3[nH]ncc3c2)cc1` [Example B5.10, 5-{5-[(4-chlorophenyl)sulfanyl]-2-(tetrahydro-2H-pyran-4-yl)-1,3-oxazol-4-yl}-1H-pyrazolo[3,4-b]pyridine], the IC50 in test [1] amounted to 98.1 nM; in test [2], 67.6 nM.

On to `CN1CCC(c2nc(-c3ccc([S+](C)[O-])cc3)c(Sc3ccc(Cl)cn3)o2)CC1` (stereo not drawn) [Example A7.20, 5-chloro-2-({2-(1-methylpiperidin-4-yl)-4-[4-(methylsulfinyl)phenyl]-1,3-oxazol-5-yl}sulfanyl)pyridine], for which the figures for the IC50 in test [1] and in test [2] were not below 10000 nM and 1700 nM, respectively.

Consider `Clc1ccc(Sc2oc(C3CCOCC3)nc2C2CCNCC2)nc1` [Example A7.31, 5-chloro-2-{[4-(piperidin-4-yl)-2-(tetrahydro-2H-pyran-4-yl)-1,3-oxazol-5-yl]sulfanyl}pyridine], for which the IC50 was not below 10000 nM in test [1] and 10000 nM in test [2].

Consider `Clc1ccc(Sc2oc(C3CCOCC3)nc2-c2ccc(N3CCOCC3)nc2)cc1` [Example B5.3, 4-(5-{5-[(4-chlorophenyl)sulfanyl]-2-(tetrahydro-2H-pyran-4-yl)-1,3-oxazol-4-yl}pyridin-2-yl)morpholine], for which the IC50 is 38.5 nM in test [1] and 12.8 nM in test [2].

On to `CC(C)(C)OC(=O)N1CCC(c2nc(-c3ccc(S(C)(=O)=O)cc3)c(Sc3ccc(Cl)cn3)o2)CC1` [Example A7.14, tert-butyl 4-{5-[(5-chloropyridin-2-yl)sulfanyl]-4-[4-(methylsulfonyl)phenyl]-1,3-oxazol-2-yl}piperidine-1-carboxylate], for which the IC50 was determined as 443 nM in test [1] and 65.3 nM in test [2].

Take `C[S+]([O-])c1ccc(-c2nc(C3CCN(C(=O)OCCNCCO)CC3)oc2Sc2ccc(Cl)cn2)cc1` (stereo not drawn) [Example A7.30, 2-[(2-hydroxyethyl)amino]ethyl 4-{5-[(5-chloropyridin-2-yl)sulfanyl]-4-[4-(methylsulfinyl)phenyl]-1,3-oxazol-2-yl}piperidine-1-carboxylate]: the IC50 in test [1] is not below 10000 nM; in test [2] it was 2140 nM.

Take `C[S+]([O-])c1ccc(-c2nc(C3CCNCC3)oc2Sc2ccc(Cl)cn2)cc1` (stereo not drawn) [Example A7.15, 4-{5-[(5-Chloropyridin-2-yl)sulfanyl]-4-[4-(methylsulfinyl)phenyl]-1,3-oxazol-2-yl}piperidinium chloride]: the IC50 in test [1] is not below 10000 nM; in test [2] it was 1420 nM.

Consider `Clc1ccc(Sc2oc(C3CCOCC3)nc2C2=CCCNC2)cc1` [Example B5.15, 5-{5-[(4-chlorophenyl)sulfanyl]-2-(tetrahydro-2H-pyran-4-yl)-1,3-oxazol-4-yl}-1,2,3,6-tetrahydropyridine], for which the IC50 was not below 10000 nM in test [1] and 4530 nM in test [2].

In the case of `C[S+]([O-])c1ccc(-c2nc(C3=CCOCC3)oc2Sc2ccc(Cl)cc2)cc1` (stereo not drawn) [Example C6.3, 5-[(4-chlorophenyl)sulfanyl]-2-(3,6-dihydro-2H-pyran-4-yl)-4-[4-(methylsulfinyl)phenyl]-1,3-oxazole], the IC50 in test [1] came to 31 nM; in test [2], 15.9 nM.

For the compound `C[S+]([O-])c1ccc(-c2nc(C3=CCC(O)CC3)oc2Sc2ccc(Cl)cc2)cc1` (stereo not drawn) [Example C6.2, 4-{5-[(4-Chlorophenyl)sulfanyl]-4-[4-(methylsulfinyl)phenyl]-1,3-oxazol-2-yl}cyclohex-3-en-1-ol], the IC50 in test [1] is 47.2 nM; in test [2], 8.68 nM.

Take `CS(=O)(=O)c1ccc(-c2nc(C3CCNCC3)oc2Sc2ccc(Cl)cn2)cc1` [Example A7.16, 5-chloro-2-({4-[4-(methylsulfonyl)phenyl]-2-(piperidin-4-yl)-1,3-oxazol-5-yl}sulfanyl)pyridine]: the IC50 is not below 10000 nM in test [1] and 925 nM in test [2].

Take `Clc1ccc(Sc2oc(C3CCOCC3)nc2-c2cn[nH]c2)cc1` [Example B5.8, 5-[(4-chlorophenyl)sulfanyl]-4-(1H-pyrazol-4-yl)-2-(tetrahydro-2H-pyran-4-yl)-1,3-oxazole]: the IC50 in test [1] is 737 nM; in test [2], 146 nM.

Consider `CC(C)OC(=O)N1CCC(c2nc(-c3ccc([S+](C)[O-])cc3)c(Sc3ccc(Cl)cn3)o2)CC1` (stereo not drawn) [Example A7.22, propan-2-yl 4-{5-[(5-chloropyridin-2-yl)sulfanyl]-4-[4-(methylsulfinyl)phenyl]-1,3-oxazol-2-yl}piperidine-1-carboxylate], for which the results for the IC50 in test [1] and in test [2] were 383 nM and 45.8 nM, respectively.

On to `C[S+]([O-])c1ccc(-c2nc(C3CCN(S(C)(=O)=O)CC3)oc2Sc2ccc(Cl)cn2)cc1` (stereo not drawn) [Example A7.19, 5-chloro-2-({4-[4-(methylsulfinyl)phenyl]-2-[1-(methylsulfonyl)piperidin-4-yl]-1,3-oxazol-5-yl}sulfanyl)pyridine], for which the IC50 in test [1] came out at 3280 nM; in test [2], 287 nM.

For the compound `CN(C)CCOC(=O)N1CCC(c2nc(-c3ccc([S+](C)[O-])cc3)c(Sc3ccc(Cl)cn3)o2)CC1` (stereo not drawn) [Example A7.29, 2-(dimethylamino)ethyl 4-{5-[(5-chloropyridin-2-yl)sulfanyl]-4-[4-(methylsulfinyl)phenyl]-1,3-oxazol-2-yl}piperidine-1-carboxylate], the values for the IC50 in test [1] and in test [2] were not below 10000 nM and 1910 nM, respectively.

Take `Clc1ccc(Sc2oc(C3CCOCC3)nc2-c2cnc3[nH]ccc3c2)cc1` [Example B5.4, 5-{5-[(4-chlorophenyl)sulfanyl]-2-(tetrahydro-2H-pyran-4-yl)-1,3-oxazol-4-yl}-1H-pyrrolo[2,3-b]pyridine]: the IC50 is 63.8 nM in test [1] and 27.6 nM in test [2].

With `CN(C)c1ncc(-c2nc(C3CCOCC3)oc2Sc2ccc(Cl)cc2)cn1` [Example B5.11, 5-{5-[(4-chlorophenyl)sulfanyl]-2-(tetrahydro-2H-pyran-4-yl)-1,3-oxazol-4-yl}-N,N-dimethylpyrimidin-2-amine], the results for the IC50 in test [1] and in test [2] were 36.9 nM and 13.1 nM, respectively.

For the compound `Clc1ccc(Sc2oc(C3CCOCC3)nc2-c2ccc3ncnn3c2)cc1` [Example B5.6, 6-{5-[(4-chlorophenyl)sulfanyl]-2-(tetrahydro-2H-pyran-4-yl)-1,3-oxazol-4-yl}[1,2,4]triazolo[1,5-a]pyridine], the results for the IC50 in test [1] and in test [2] were 421 nM and 118 nM, respectively.

Regarding `Cn1nnc2ccc(-c3nc(C4CCOCC4)oc3Sc3ccc(Cl)cc3)cc21` [Example B5.7, 6-{5-[(4-chlorophenyl)sulfanyl]-2-(tetrahydro-2H-pyran-4-yl)-1,3-oxazol-4-yl}-1-methyl-1H-benzotriazole], the IC50 in test [1] came out at 169 nM; in test [2], 92.2 nM.

As to `COC(=O)Cn1cc(-c2nc(C3CCOCC3)oc2Sc2ccc(Cl)cc2)cn1` [Example B5.13, methyl (4-{5-[(4-chlorophenyl)sulfanyl]-2-(tetrahydro-2H-pyran-4-yl)-1,3-oxazol-4-yl}-1H-pyrazol-1-yl)acetate], the IC50 in test [1] is 847 nM; in test [2], 320 nM.

Take `COCCOCC(=O)N1CCC(c2nc(-c3ccc([S+](C)[O-])cc3)c(Sc3ccc(Cl)cn3)o2)CC1` (stereo not drawn) [Example A7.25, 1-(4-{5-[(5-chloropyridin-2-yl)sulfanyl]-4-[4-(methylsulfinyl)phenyl]-1,3-oxazol-2-yl}piperidin-1-yl)-2-(2-methoxyethoxy)ethanone]: the results for the IC50 in test [1] and in test [2] were 4670 nM and 525 nM, respectively.

The values above are taken from US9193697B2, “Oxazole derivatives useful as modulators of FAAH” (MERCK SHARP & DOHME CORP., priority 2010, dated 2015).
